In patent US20040005702A1, “Insulin producing cell-line” (priority 2000, published 2004):
“And” between values parts separate entries of the source, which are not always exact repeats. Equal entries are not always repeated. “Also recorded” adds a separate entry of the source.

What was measured:
[1] = test system: human islet-derived 1.2B4 cells; assay: Acute static incubation, insulin secretion by radioimmunoassay, 1.2B4 cells; assay type: cell-based
Protocol: (§1) Acute static incubations at 37° C. were performed using monolayers of insulin-secreting cells. […] Approximately 2.5×10^5 cells were then seeded in each well of 24-well multiplates (Iwaki Glass, Japan). […] The cells were incubated at 37° C. for 40 minutes, after which the buffer was removed and replaced with 0.5 ml KRBB test buffer. […] After 60 min incubation at 37° C., a 450 μl aliquot of KRBB test buffer was removed from each well into 2 ml polypropylene tube (Lip Plastics, England) and centrifuged at 900 rpm for 5 minutes at 4° C. The supernatant was then collected from each tube and 200 μl aliquots were then stored at −20° C. for subsequent insulin determination by radioimmunoassay.
(§2) Human insulin standards were prepared over a range of 2-fold serial dilutions from 5.0 ng/ml to 0.009 ng/ml using Human insulin standard (Sigma Chemical, UK). […] This antiserum was specificaly selected for high affinity with human insulin standard.
(§3) After a further 24 hours incubation at 4° C., 1 ml of a 5% (w/v) charcoal coated with 1:10 dextran T-70 in sodium phosphate buffer (40 mmol/1, pH 7.4) was added to each tube. […] Counts bound to antibody (average total counts minus counts bound to charcoal) are inversely proportional to the concentration of insulin in the standard or unknown sample. The unknown concentration was determined by means of the standard curve, constructed from the known […] insulin standard using a spline curve fitting algorithim.

[2] = test system: 1.1B4 cells; assay: Glucose oxidation from D-[U-14C]glucose, 1.1B4 cells; assay type: cell-based, human; settings: 2 mmol/l 5-thioglucose
Protocol: (§4) A modification of the method developed by Keen et al. (1963) was used to determine oxidative glucose metabolism to CO2. In principle, the method involves incubation of cells in specially designed glass cups suspended inside standard counting vials with an airtight rubber stopper. A disc of filter paper (Whatman No. 1) was placed on the base of the counting vial. For each sample, 2.0×10^5 cells were incubated in the presence of either 1.1, 5.6, 11.1, 16.7 mmol/l glucose and D-[U-^14C] glucose to give a final concentration of […] (40 μl total volume). Effect of 2 mmol/l 5-thioglucose were also tested in 1.1 and 16.7 mmol/l glucose Blanks were set up where the cells were omitted and replaced with KRBB to give a final concentration of either 1.1 or 16.7 mmol/l glucose. Standards consisted of ^14C-labelled glucose (0.5 μCi) added to the filter paper at the base of the counting vial. The glass vials were sealed with the rubber caps and placed at 37° C. for one hour. The reaction was stopped by the addition of 0.2M HCl ([…]) injected through the rubber cap directly into the centre well using a Hamilton syringe. Phenylethylamine (PEA) was added (100 μl) through the sealed lid onto the filter paper at the base of the vial. Care was taken to avoid contamination of the centre well with PEA. […] Vials were capped and ^14C-glucose labelled radioactivity determined by scintillation counter.

[3] = test system: human islet-derived 1.4E7 cells; assay: Acute static incubation, insulin secretion by radioimmunoassay, 1.4E7 cells; assay type: cell-based
Protocol: as §1, §2, §3

[4] = test system: Hup-T3 cells; assay: Glucose oxidation from D-[U-14C]glucose, Hup-T3 cells; assay type: cell-based, human; settings: 2 mmol/l 5-thioglucose, tested at 1.1 and 16.7 mmol/l glucose
Protocol: as §4

[5] = test system: Hup-T3 cells; assay: Glucose utilisation from [5-3H]glucose, Hup-T3 cells; assay type: cell-based, human; settings: 2 mmol/l 5-thioglucose, tested at 1.1 and 16.7 mmol/l glucose
Protocol: (§5) Experiments were performed in specially designed glass cups suspended inside standard counting vials with an airtight stopper. For each sample, 2.0×10^5 cells were incubated in the presence of either 1.1, 5.6, 11.1 or 16.7 mmol/l glucose and D-[5 ^3H] glucose to give a final concentration of 0.25 μCi (40 μl total volume) Effects of 2 mmol/l 5-thioglucose were also tested in 1.1 and 16.7 mmol/l glucose. Blanks were set up where the cells were omitted and replaced with KRBB to give a final concentration of either 1.1 or 16.7 mmol/l glucose. Standards consisted of D-[5^−3H] glucose (0.5 μCi) added to the base of the counting vial. The glass vials were sealed with the rubber caps and placed at 37° C. for one hour. The reaction was stopped by the addition of 0.2M HCl (50 μl) injected through the rubber cap directly into the centre well using a Hamilton syringe. Sterile deionized water was added (500 μl) through the sealed lid into the base of the vial. Vials were then placed at 37° C. for a 15 hour. The rubber caps and centre wells were removed and 5 ml of liquid scintillation fluid (BDH) added to each vial on top of the filter paper. Vials were capped and ^3H-glucose labelled radioactivity determined by scintillation counter.

[6] = test system: 1.1E7 cells; assay: Glucose utilisation from [5-3H]glucose, 1.1E7 cells; assay type: cell-based, human; settings: 2 mmol/l 5-thioglucose, tested at 1.1 and 16.7 mmol/l glucose
Protocol: as §5

[7] = test system: 1.4E7 cells; assay: Glucose oxidation from D-[U-14C]glucose, 1.4E7 cells; assay type: cell-based, human; settings: 2 mmol/l 5-thioglucose
Protocol: as §4

[8] = test system: 1.2B4 cells; assay: Glucose utilisation from [5-3H]glucose, 1.2B4 cells; assay type: cell-based, human; settings: 2 mmol/l 5-thioglucose, tested at 1.1 and 16.7 mmol/l glucose
Protocol: as §5

[9] = test system: 1.4E7 cells; assay: Glucose utilisation from [5-3H]glucose, 1.4E7 cells; assay type: cell-based, human; settings: 2 mmol/l 5-thioglucose, tested at 1.1 and 16.7 mmol/l glucose
Protocol: as §5

[10] = test system: PANC-1 cells; assay: Glucose utilisation from [5-3H]glucose, PANC-1 cells; assay type: cell-based, human; settings: 2 mmol/l 5-thioglucose, this concentration = 16.7 mmol/l glucose
Protocol: as §5

[11] = test system: human islet-derived 1.1B4 cells; assay: Acute static incubation, insulin secretion by radioimmunoassay, 1.1B4 cells; assay type: cell-based; settings: for increase of insulin secretion: at 5.6 mmol/l glucose; for increase of the effect on raising glucose from 5.6 mmol/l to 11.1 mmol/l: 11.1 vs 5.6 mmol/l glucose
Protocol: as §1, §2, §3

[12] = test system: 1.2B4 cells; assay: Glucose oxidation from D-[U-14C]glucose, 1.2B4 cells; assay type: cell-based, human; settings: 2 mmol/l 5-thioglucose, tested at 1.1 and 16.7 mmol/l glucose
Protocol: as §4

[13] = test system: PANC-1 cells; assay: Glucose oxidation from D-[U-14C]glucose, PANC-1 cells; assay type: cell-based, human; settings: 2 mmol/l 5-thioglucose, tested at 1.1 and 16.7 mmol/l glucose
Protocol: as §4

[14] = test system: 1.1B4, 1.1E7, 1.4E7 and 1.2B4 cells; assay: Acute static incubation, insulin secretion, statements pooled over all four cell lines; assay type: cell-based, human; settings: for insulin release from the novel cell lines: each of the novel cell lines, glucose concentration not stated; for insulin release at 11.1 mmol/l glucose: novel cells
Protocol: as §1, §2, §3

[15] = test system: human islet-derived 1.1E7 cells; assay: Acute static incubation, insulin secretion by radioimmunoassay, 1.1E7 cells; assay type: cell-based; settings: for threshold glucose concentration for stimulation of insulin release in the presence of the agent: IBMX or 2 mmol/l 5-thioglucose included
Protocol: as §1, §2, §3

[16] = test system: 1.1B4 cells; assay: Glucose utilisation from [5-3H]glucose, 1.1B4 cells; assay type: cell-based, human; settings: 2 mmol/l 5-thioglucose
Protocol: as §5

[17] = test system: 1.1E7 cells; assay: Glucose oxidation from D-[U-14C]glucose, 1.1E7 cells; assay type: cell-based, human; settings: 2 mmol/l 5-thioglucose
Protocol: as §4

[18] = 2 mmol/l 5-thioglucose, 0 to 11.1 mmol/l glucose
[19] = tested at 1.1 and 16.7 mmol/l glucose
[20] = all four cell lines, 16.7 mmol/l glucose
[21] = 200 μmol/ IBMX, glucose 0 to 16.7 mmol/l

O=C[C@H](O)[C@@H](O)[C@H](O)[C@H](S)CO [5-thioglucose]
glucose-stimulated insulin release in the presence of 5-thioglucose ([1]; 2 mmol/l 5-thioglucose): became apparent | lowering of insulin output by 5-thioglucose [1, 18]: 20-50% and 20 to 50% | ratio of glucose oxidation:glucose utilisation on addition of 5-thioglucose [2]: significant increase in ratio | effect of 5-thioglucose on glucose oxidation [2, 19]: inhibit the oxidation of glucose at both 1.1 mmol/l and 16.7 mmol/l glucose; also recorded: only marginally inhibited | effect of 5-thioglucose on insulin output and glucose responsiveness ([3]; 2 mmol/l 5-thioglucose): least affected; also recorded: not affected | effect of 5-thioglucose on glucose oxidation [4]: able to inhibit oxidation at both 1.1 and 16.7 mmol/l glucose | effect of 5-thioglucose on glucose utilisation [5]: did not inhibit | effect of 5-thioglucose on glucose utilisation [6]: only affected utilisation at 16.7 mmol/l | ratio of glucose oxidation:glucose utilisation on addition of 5-thioglucose [7]: significant increase in ratio | effect of 5-thioglucose on glucose oxidation [7, 19]: clearly inhibiting oxidation at both 1.1 and 16.7 | effect of 5-thioglucose on glucose utilisation [8]: had no affect | effect of 5-thioglucose on glucose utilisation [9]: unaffected | effect of 5-thioglucose on glucose utilisation [10]: inhibit utilisation only at this concentration | lowering of insulin output by 5-thioglucose [11, 18]: 20-50% and 20 to 50% | effect of 5-thioglucose on glucose oxidation [12]: inhibited oxidation at 16.7 mmol/l | effect of 5-thioglucose on glucose oxidation [13]: significant inhibition of oxidation at both 1.1 and 16.7 mmol/l | effect of 5-thioglucose on responsiveness to increasing glucose concentrations ([14]; all four cell lines, 2 mmol/l 5-thioglucose): improved; also recorded: caused a shift | lowering of insulin output by 5-thioglucose [15, 18]: 20-50% and 20 to 50% | threshold glucose concentration for stimulation of insulin release in the presence of the agent [15]: 5.6 mmol/L | effect of 5-thioglucose on glucose utilisation ([16]; 1.1 mmol/l glucose): did not affect | effect of 5-thioglucose on glucose utilisation ([16]; 16.7 mmol/l glucose): reduce utilisation | ratio of glucose oxidation:glucose utilisation on addition of 5-thioglucose [17]: significant increase in ratio

CC1=NS(=O)(=O)c2cc(Cl)ccc2N1 [Diazoxide, diazoxide]
inhibition at 400 µM ([14]; Homo sapiens, all four cell lines, 16.7 mmol/l glucose, diazoxide 400 μmol/l, EGTA in Ca2+-free buffer, read-out: inhibition of insulin release): 20 to 50% | insulin output at 16.7 mmol/l glucose [14, 20]: significantly reduced

O=C(O)CN(CCOCCOCCN(CC(=O)O)CC(=O)O)CC(=O)O [EGTA]
insulin output at 16.7 mmol/l glucose [14, 20]: significantly inhibited

[Cl-].[K+] [KCl]
secretory responsiveness at passage 40 ([14]; all four cell lines, passage 40 vs 17): maintain responsiveness | insulin release from the novel cell lines [14]: provoked insulin release

CC(C)CC(=O)C(=O)O [KIC]
insulin secretion at 11.1 mmol/l glucose [1]: induced insulin secretion | insulin secretion at 11.1 mmol/l glucose [3]: induced insulin secretion | insulin release at 11.1 mmol/l glucose [14]: significant increases in insulin release | insulin secretory response at 11.1 mmol/l glucose compared with 5.6 mmol/l [15]: significantly greater

C[C@H](N)C(=O)O [alanine, L-alanine]
insulin secretion at 11.1 mmol/l glucose [1]: induced insulin secretion | insulin secretion at 11.1 mmol/l glucose [3]: induced insulin secretion | increase of insulin secretion [11]: Significant effects | insulin release at 11.1 mmol/l glucose [14]: significant increases in insulin release | insulin secretory response at 11.1 mmol/l glucose compared with 5.6 mmol/l [15]: significantly greater

N=C(N)NCCC[C@H](N)C(=O)O [arginine, L-arginine]
increase of the effect on raising glucose from 5.6 mmol/l to 11.1 mmol/l [11]: 17% | insulin secretion at non-stimulatory glucose ([14]; each cell line, 5.6 mmol/l glucose): significantly stimulated | insulin release at 11.1 mmol/l glucose [14]: significant increases in insulin release | insulin secretory response at 11.1 mmol/l glucose compared with 5.6 mmol/l [15]: significantly greater

COc1ccc(Cl)cc1C(=O)NCCc1ccc(S(=O)(=O)NC(=O)NC2CCCCC2)cc1 [glibenclamide]
insulin release from the novel cell lines [14]: provoked insulin release

O=CC(O)CO (stereo not shown) [glyceraldehyde]
insulin release from the novel cell lines [14]: significantly stimulate

CC(C)C[C@H](N)C(=O)O [leucine, L-leucine]
insulin secretion at 11.1 mmol/l glucose [1]: induced insulin secretion | insulin secretion at 11.1 mmol/l glucose [3]: induced insulin secretion | increase of the effect on raising glucose from 5.6 mmol/l to 11.1 mmol/l [11]: 30% | increase of insulin secretion [11]: Significant effects | insulin release at 11.1 mmol/l glucose [14]: significant increases in insulin release | insulin secretory response at 11.1 mmol/l glucose compared with 5.6 mmol/l [15]: significantly greater

CCCCNC(=O)NS(=O)(=O)c1ccc(C)cc1 [tolbutamide]
increase of the effect on raising glucose from 5.6 mmol/l to 11.1 mmol/l [11]: 20% | insulin release from the novel cell lines [14]: provoked insulin release

COc1ccc(CCN(C)CCCC(C#N)(c2ccc(OC)c(OC)c2)C(C)C)cc1OC (stereo not shown) [verapamil]
insulin output at 16.7 mmol/l glucose [14, 20]: similarly reduced

isobutylmethylxanthine [IBMX]
effect of IBMX on insulin released ([1]; 200 μmol/ IBMX): did not significantly affect; also recorded: insensitive | increase of secretory response to glucose by IBMX [3, 21]: 20 to 100% and 20 to 60% | stimulation of secretory response with IBMX [3, 21]: 1.3-2 fold | insulin secretion with IBMX in the absence of glucose ([3]; absence of glucose): modestly enhanced | increase of secretory response to glucose by IBMX [11, 21]: 20 to 100% and 20 to 60% | stimulation of secretory response with IBMX [11, 21]: 1.3-2 fold | insulin secretion with IBMX in the absence of glucose ([11]; absence of glucose): modestly enhanced | increase of secretory response to glucose by IBMX [15, 21]: 20 to 100% and 20 to 60% | stimulation of secretory response with IBMX [15, 21]: 1.3-2 fold | threshold glucose concentration for stimulation of insulin release in the presence of the agent [15]: 5.6 mmol/L
